Among the data in ChEMBL document CHEMBL2321828, “Interrogation of the Active Sites of Protein Arginine Deiminases (PAD1, -2, and -4) Using Designer Probes” (ACS Med Chem Lett, 2013) are Ratio values, retold here.

Each structure is given as a SMILES string.

Assay [1] deals with Protein-arginine deiminase type-2 (Mus musculus) (UniProt Q08642). Put plainly: Ratio of Kinact to Ki for mouse PAD2 using BAEE as substrate after 30 mins.
Assay [2] concerns the target Protein-arginine deiminase type-4 (Homo sapiens) (UniProt Q9UM07). Nature of the assay: Ratio of Kinact to Ki for human PAD4 using BAEE as substrate after 30 mins.
Assay [3] has as its target T1, Protein-arginine deiminase type-1 (Homo sapiens) (UniProt Q9ULC6).
T1 sequence (whole entry): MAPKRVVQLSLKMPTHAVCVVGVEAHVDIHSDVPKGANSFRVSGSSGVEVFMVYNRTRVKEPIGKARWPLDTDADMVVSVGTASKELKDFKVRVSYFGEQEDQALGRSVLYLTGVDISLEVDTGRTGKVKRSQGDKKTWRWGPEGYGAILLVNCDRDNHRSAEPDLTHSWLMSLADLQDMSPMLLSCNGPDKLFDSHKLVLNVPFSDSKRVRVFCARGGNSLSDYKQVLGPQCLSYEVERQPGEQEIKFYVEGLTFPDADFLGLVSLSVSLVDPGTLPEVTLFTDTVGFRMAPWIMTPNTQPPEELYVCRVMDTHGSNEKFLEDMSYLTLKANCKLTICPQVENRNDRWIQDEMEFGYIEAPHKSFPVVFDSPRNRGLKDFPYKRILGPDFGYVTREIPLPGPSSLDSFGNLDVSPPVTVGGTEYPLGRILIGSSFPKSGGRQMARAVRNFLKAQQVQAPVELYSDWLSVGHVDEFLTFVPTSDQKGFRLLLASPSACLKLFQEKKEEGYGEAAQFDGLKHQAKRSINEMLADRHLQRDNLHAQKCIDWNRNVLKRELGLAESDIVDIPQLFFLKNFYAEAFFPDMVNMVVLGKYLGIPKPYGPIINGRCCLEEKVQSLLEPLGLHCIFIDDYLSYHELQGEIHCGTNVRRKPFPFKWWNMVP
Put plainly: Ratio of Kinact to Ki for human PAD1 using BAEE as substrate after 30 mins.

Chain of Protein-arginine deiminase type-2 (Mus musculus) (Q08642 whole entry): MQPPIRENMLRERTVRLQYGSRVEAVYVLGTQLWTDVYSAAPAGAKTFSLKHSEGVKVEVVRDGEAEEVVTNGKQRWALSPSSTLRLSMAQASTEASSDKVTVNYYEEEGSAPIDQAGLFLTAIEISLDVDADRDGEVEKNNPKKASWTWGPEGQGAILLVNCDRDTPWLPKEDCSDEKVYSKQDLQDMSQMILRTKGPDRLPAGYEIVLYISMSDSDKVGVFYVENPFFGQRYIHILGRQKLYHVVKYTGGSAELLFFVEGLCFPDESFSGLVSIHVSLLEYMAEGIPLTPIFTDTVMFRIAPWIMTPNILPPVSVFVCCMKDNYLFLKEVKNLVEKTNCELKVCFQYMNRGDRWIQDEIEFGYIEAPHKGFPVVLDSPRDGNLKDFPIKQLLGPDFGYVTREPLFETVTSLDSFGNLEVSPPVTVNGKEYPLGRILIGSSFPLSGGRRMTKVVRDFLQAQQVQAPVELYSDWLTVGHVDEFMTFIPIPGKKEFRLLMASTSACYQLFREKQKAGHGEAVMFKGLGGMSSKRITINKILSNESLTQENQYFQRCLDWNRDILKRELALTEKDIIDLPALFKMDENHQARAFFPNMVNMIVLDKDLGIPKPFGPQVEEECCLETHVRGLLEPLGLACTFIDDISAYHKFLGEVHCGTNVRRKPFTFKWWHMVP
Chain of Protein-arginine deiminase type-4 (Homo sapiens) (Q9UM07 whole entry): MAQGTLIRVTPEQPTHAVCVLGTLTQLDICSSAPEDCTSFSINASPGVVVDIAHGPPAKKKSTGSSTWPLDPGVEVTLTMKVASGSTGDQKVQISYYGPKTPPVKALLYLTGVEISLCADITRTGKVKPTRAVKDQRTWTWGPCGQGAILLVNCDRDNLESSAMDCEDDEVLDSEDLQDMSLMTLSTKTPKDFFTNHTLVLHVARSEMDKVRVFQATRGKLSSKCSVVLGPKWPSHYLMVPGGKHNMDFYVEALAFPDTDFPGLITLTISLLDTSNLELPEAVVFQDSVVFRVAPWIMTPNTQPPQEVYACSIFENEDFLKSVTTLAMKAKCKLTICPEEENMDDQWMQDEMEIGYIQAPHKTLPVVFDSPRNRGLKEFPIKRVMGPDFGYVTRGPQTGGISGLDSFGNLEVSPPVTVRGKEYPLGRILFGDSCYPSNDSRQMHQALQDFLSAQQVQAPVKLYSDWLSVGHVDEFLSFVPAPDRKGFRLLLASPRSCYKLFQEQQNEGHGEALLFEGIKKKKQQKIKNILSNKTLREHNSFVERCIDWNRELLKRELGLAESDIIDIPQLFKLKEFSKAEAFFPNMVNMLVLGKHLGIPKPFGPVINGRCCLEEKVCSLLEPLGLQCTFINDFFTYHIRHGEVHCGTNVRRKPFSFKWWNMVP

As to `COC(=O)[C@H](CCCNC(=N)CCl)NC(C)=O`, the values for the Ratio in assay [1], in assay [2] and in assay [3] were 167 M⁻¹ min⁻¹, 865 M⁻¹ min⁻¹ and 497 M⁻¹ min⁻¹, respectively.

In the case of `N=C(N)CCl`, the Ratio in assay [1] was 9 M⁻¹ min⁻¹; in assay [2], 60 M⁻¹ min⁻¹; in assay [3] it was 32 M⁻¹ min⁻¹.

Take `COC(=O)[C@H](CCCCNC(=N)CCl)NC(C)=O`: the Ratio is 120 M⁻¹ min⁻¹ in assay [1], 50 M⁻¹ min⁻¹ in assay [2] and 62 M⁻¹ min⁻¹ in assay [3].

Regarding `COC(=O)[C@H](CCNC(=N)CCl)NC(C)=O`, the Ratio in assay [1] amounted to 50 M⁻¹ min⁻¹; in assay [2], 183 M⁻¹ min⁻¹; in assay [3], 111 M⁻¹ min⁻¹.
